Results taken from ChEMBL document CHEMBL1201862, “PubChem BioAssay data set” (2004).
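Interpolation was linear, between the two tested concentrations surrounding the appropriate level; five concentrations were tested over 48 hours in 96-well plates. GI50 is the concentration that inhibits growth by half.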 Activity calls are given as the source filed them. Cut-off read from the data, not from the text of the source: active = GI50 up to about 1.1 µM and inactive = higher.

Columns and labels:
Assay in all cases: growth of human tumour cells (NCI), 48 h
786-0 = system: 786-0
A498 = system: A498
A549 = system: A549
ACHN = system: ACHN
BT-549 = system: BT-549
CAKI-1 = system: CAKI-1
CCRF-CEM = system: CCRF-CEM
COLO 205 = system: COLO 205
DU-145 = system: DU-145
EKVX = system: EKVX
HCC 2998 = system: HCC 2998
HCT-116 = system: HCT-116
HCT-15 = system: HCT-15
HL-60 = system: HL-60
HOP-62 = system: HOP-62
HOP-92 = system: HOP-92
HT-29 = system: HT-29
Hs-578T = system: Hs-578T
IGROV-1 = system: IGROV-1
K562 = system: K562
KM12 = system: KM12
LOX IMVI = system: LOX IMVI
M14 = system: M14
MCF7 = system: MCF7
MDA-MB-231 = system: MDA-MB-231
MDA-MB-435 = system: MDA-MB-435
MDA-N = system: MDA-N
MOLT-4 = system: MOLT-4
Malme-3M = system: Malme-3M
NCI-H226 = system: NCI-H226
NCI-H23 = system: NCI-H23
NCI-H460 = system: NCI-H460
NCI-H522 = system: NCI-H522
NCI/ADR-RES = system: NCI/ADR-RES
OVCAR-3 = system: OVCAR-3
OVCAR-4 = system: OVCAR-4
OVCAR-5 = system: OVCAR-5
OVCAR-8 = system: OVCAR-8
PC-3 = system: PC-3
RPMI-8226 = system: RPMI-8226
RXF 393 = system: RXF 393
SF-268 = system: SF-268
SF-295 = system: SF-295
SF-539 = system: SF-539
SK-MEL-28 = system: SK-MEL-28
SK-MEL-2 = system: SK-MEL-2
SK-MEL-5 = system: SK-MEL-5
SK-OV-3 = system: SK-OV-3
SN12C = system: SN12C
SNB-19 = system: SNB-19
SNB-75 = system: SNB-75
SR = system: SR
SW-620 = system: SW-620
T47D = system: T47D
TK-10 = system: TK-10
U-251 = system: U-251
UACC-257 = system: UACC-257
UACC-62 = system: UACC-62
UO-31 = system: UO-31
DLD-1 = system: DLD-1
LXFL 529 = system: LXFL 529
M19-MEL = system: M19-MEL
SNB-78 = system: SNB-78

Measured: GI50

CC/C(Cl)=N\OC(=O)Nc1ccc(OC)c(C)c1
active: CAKI-1 0.832 µM
inactive: 786-0 12.5 µM | A498 26.5 µM | A549 27.9 µM | ACHN 8.93 µM | BT-549 12.9 µM | CCRF-CEM 4.93 µM | COLO 205 15.1 µM | DU-145 28 µM | EKVX 3.15 µM | HCC 2998 19.6 µM | HCT-116 12.6 µM | HL-60 3.5 µM | HOP-62 34.4 µM | HOP-92 2.82 µM | HT-29 17.4 µM | Hs-578T 16.9 µM | IGROV-1 16.4 µM | K562 15.7 µM | KM12 23.8 µM | LOX IMVI 10.9 µM | M14 17.9 µM | MCF7 16.7 µM | MDA-MB-231 30.6 µM | MDA-MB-435 34.2 µM | MDA-N 18.7 µM | MOLT-4 5.74 µM | Malme-3M 11.4 µM | NCI-H226 26.4 µM | NCI-H23 15 µM | NCI-H460 41.2 µM | NCI-H522 2.21 µM | NCI/ADR-RES 15 µM | OVCAR-3 16.4 µM | OVCAR-4 16.2 µM | OVCAR-5 30.5 µM | OVCAR-8 17.5 µM | PC-3 28.8 µM | RPMI-8226 11.9 µM | RXF 393 14.6 µM | SF-268 29.2 µM | SF-295 80.4 µM | SF-539 17.4 µM | SK-MEL-28 23.2 µM | SK-MEL-2 19 µM | SK-MEL-5 18.7 µM | SK-OV-3 58.6 µM | SN12C 15.9 µM | SNB-19 42.1 µM | SNB-75 80 µM | SR 3.04 µM | SW-620 24.3 µM | T47D 13.9 µM | TK-10 20.6 µM | U-251 45.3 µM | UACC-257 16.5 µM | UACC-62 15 µM | UO-31 15.3 µM
6.34 µM: HCT-15

CCOC(=O)N1CCC(N[C@@H]2c3cc4c(cc3[C@@H](c3cc(OC)c(O)c(OC)c3)[C@H]3C(=O)OC[C@@H]32)OCO4)CC1
0.796 µM: HCT-15
active: A498 0.358 µM | ACHN 0.431 µM | CAKI-1 0.478 µM | CCRF-CEM 0.697 µM | HOP-62 0.714 µM | HOP-92 0.5 µM | NCI-H23 0.527 µM | NCI-H460 0.065 µM | SF-295 0.499 µM | SK-OV-3 0.8 µM | SNB-19 0.69 µM | UACC-62 1.03 µM | UO-31 1.02 µM
inactive: 786-0 1.15 µM | COLO 205 4.3 µM | DLD-1 5.21 µM | EKVX 2.69 µM | HCT-116 3.4 µM | HT-29 4.13 µM | IGROV-1 2.9 µM | K562 3.98 µM | KM12 2.86 µM | LOX IMVI 1.26 µM | LXFL 529 7.53 µM | M14 1.7 µM | M19-MEL 3.12 µM | Malme-3M 3.46 µM | OVCAR-3 5.06 µM | OVCAR-8 1.85 µM | SF-268 3.5 µM | SF-539 1.23 µM | SK-MEL-28 7.08 µM | SK-MEL-2 5.81 µM | SK-MEL-5 1.48 µM | SNB-75 2.67 µM | SNB-78 10.2 µM | SW-620 2.58 µM | UACC-257 5.16 µM
